Measured values: PMC11398567, “Structures of Native Doublet Microtubules from Trichomonas vaginalis Reveal Parasite-Specific Proteins as Potential Drug Targets” (Research Square, 2024)

Biological target: T1, TvFAP40 (Trichomonas vaginalis, UniProt A2DSS2)
T1 construct: gene TVAG_347810; native full-length protein in doublet microtubules isolated from parasite flagella; C-terminal residue Tyr377; head domain 1-145, coiled-coil tail 149-361; ligand in head domain
T1 sequence (A2DSS2 1-377): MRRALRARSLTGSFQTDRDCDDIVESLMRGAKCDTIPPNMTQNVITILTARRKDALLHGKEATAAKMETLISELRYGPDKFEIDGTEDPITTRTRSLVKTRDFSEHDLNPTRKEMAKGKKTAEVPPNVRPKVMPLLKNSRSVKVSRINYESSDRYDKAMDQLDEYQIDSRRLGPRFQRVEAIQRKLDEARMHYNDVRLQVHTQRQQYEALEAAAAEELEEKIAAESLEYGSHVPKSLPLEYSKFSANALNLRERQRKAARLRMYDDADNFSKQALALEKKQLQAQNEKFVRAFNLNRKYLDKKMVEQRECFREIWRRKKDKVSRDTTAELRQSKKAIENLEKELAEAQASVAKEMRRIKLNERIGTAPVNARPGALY
Test: cryo-EM structure of native doublet microtubules
Assay type: binding
Conditions: co-purified endogenous ligand, putatively assigned from map density; positively charged pocket of head domain; likely metal cation nearby
Source text: cryo-EM structure of native doublet microtubules on TvFAP40 | consistent with bonding to a non-planar six-membered ring.

SMILES: O=P(O)(O)O[C@H]1[C@H](OP(=O)(O)O)[C@@H](OP(=O)(O)O)[C@H](OP(=O)(O)O)[C@@H](OP(=O)(O)O)[C@H]1OP(=O)(O)O [IP6]
- cryo-EM structure of native doublet microtubules: consistent with bonding to a non-planar six-membered ring. Together these features suggested an inositol polyphosphate
